Literature values in patent US20110268797A1, “MULTICOATED ALISKIREN FORMULATIONS” (Sanovel IIac Sanayi Ve Ticaret Anonim Sirketi, priority 2010, published 2011).
Read-outs that look alike come from different tables or passages of the source.

solubility (in n-octanol): freely soluble
solubility (in phosphate buffer): freely soluble
solubility (in water): freely soluble
Compound: COCCCOc1cc(C[C@@H](C[C@H](N)[C@@H](O)C[C@H](C(=O)NCC(C)(C)C(N)=O)C(C)C)C(C)C)ccc1OC [Aliskiren hemifumarate]
